US11191749B2, “Pharmaceutical compositions for combination therapy” (GENFIT, priority 2017, dated 2021)

Tested on: TGFβ1-induced hHSC (α-SMA)
Experiment: α-SMA ELISA in TGFβ1-induced human primary hepatic stellate cells (single agents and combination matrix, EOB/EOHSA)
Format: cell-based
Conditions: 1 h preincubation, TGFβ1 1 ng/ml, 48 h, FIG. 1
Protocol: After 48 hours of incubation, the expression of α-SMA was measured by ELISA. […] Data are presented as mean (triplicates)±standard deviation (SD).
Combinations were tested in a dose-response matrix format and analyzed according to the excess over Bliss (EOB) additivism model. […] Data are presented as mean of quadruplicates. (B) EOB scores were calculated as described in Materials and Methods. […] Data are presented as mean (quadruplicates)±standard deviation (SD).
Combinations were tested in a dose-response matrix format and analyzed according to the excess over Bliss (EOB) additivism model. […] Data are presented as mean (quadruplicates)±standard deviation (SD).
Then, 2-fold and 4-fold higher and lower concentrations were selected.
The human primary hepatic stellate cells (hHSC) (Innoprot) were cultured under standard conditions, as described above.

O=C(Nc1ncc([N+](=O)[O-])s1)c1ccccc1O [TZ, tizoxanide]
antifibrotic activity (α-SMA) as single agent: profile similar to the parent drug
